Our source for the EC50 values is patent US20240116962A1, “PYRIDINE-2-AMINE DERIVATIVE AND PHARMACEUTICAL COMPOSITION AND USE THEREOF” (TSINGHUA UNIVERSITY, priority 2020, published 2024).

The target of one test is T1, hTLR8 (Homo sapiens, UniProt Q9NR97).
T1 construct: host or cells: HEK-Blue hTLR8 (HEK293-derived reporter cells with SEAP read-out)
T1 sequence (Q9NR97 27-1041): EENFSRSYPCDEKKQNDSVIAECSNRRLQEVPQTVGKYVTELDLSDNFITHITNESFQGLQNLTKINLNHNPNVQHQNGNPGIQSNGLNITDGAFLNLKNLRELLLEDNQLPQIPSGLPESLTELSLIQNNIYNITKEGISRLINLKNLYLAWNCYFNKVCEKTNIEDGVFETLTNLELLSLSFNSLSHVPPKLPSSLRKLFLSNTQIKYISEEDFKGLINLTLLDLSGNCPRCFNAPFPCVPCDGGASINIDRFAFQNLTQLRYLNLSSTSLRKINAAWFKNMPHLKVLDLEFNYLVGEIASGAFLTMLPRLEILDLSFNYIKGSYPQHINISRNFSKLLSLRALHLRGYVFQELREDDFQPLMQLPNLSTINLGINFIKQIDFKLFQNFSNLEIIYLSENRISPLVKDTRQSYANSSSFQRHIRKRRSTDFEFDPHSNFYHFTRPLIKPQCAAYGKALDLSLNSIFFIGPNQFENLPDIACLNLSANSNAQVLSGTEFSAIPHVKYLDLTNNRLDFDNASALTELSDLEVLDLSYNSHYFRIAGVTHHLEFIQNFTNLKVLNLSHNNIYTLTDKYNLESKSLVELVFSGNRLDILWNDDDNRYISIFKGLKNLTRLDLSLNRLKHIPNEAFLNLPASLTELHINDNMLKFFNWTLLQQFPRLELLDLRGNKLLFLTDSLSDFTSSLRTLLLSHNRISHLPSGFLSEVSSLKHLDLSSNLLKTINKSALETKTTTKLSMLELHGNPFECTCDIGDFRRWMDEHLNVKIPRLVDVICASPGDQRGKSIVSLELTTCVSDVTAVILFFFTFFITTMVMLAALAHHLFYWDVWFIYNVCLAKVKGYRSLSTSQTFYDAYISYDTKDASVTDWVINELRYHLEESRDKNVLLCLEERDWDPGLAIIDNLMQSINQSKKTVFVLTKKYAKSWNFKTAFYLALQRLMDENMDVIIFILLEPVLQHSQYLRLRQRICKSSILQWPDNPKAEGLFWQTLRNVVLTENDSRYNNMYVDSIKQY
As to the kind of experiment: EC50 assay for small molecule agonists, HEK-Blue hTLR8 cells, SEAP readout. Format: cell-based. As to conditions: read-out: concentration for 50% of maximal effect (EC50) hTLR8. As to the method:
(§1) Reagents used for cell culture and detection for HEK-Blue™ hTLR7, HEK-Blue™ hTLR8 and control HEK-Blue Nu112k were as follows: DMEM (4.5 g/L glucose), bovine serum FBS, streptomycin ([…]), penicillin (50 U/mL), Blasticidin (10 mg/mL), Zeocin™ (10 mg/mL), Normocin (50 mg/mL), and HEK-Blue™ Detection. Basal medium was as follows: DMEM +10% FBS+streptomycin+penicillin+Normocin ([…]); selective medium for resistance genes was as follows: DMEM+10% FBS+streptomycin+penicillin+Normocin (1001 μg/mL)+Blasticidin (1001 μg/mL)+Zeocin™ (1001 μg/mL).
(§2) Cell preparation: HEK-Blue™ hTLR7 and HEK-Blue™ hTLR8 cell lines were purchased from Invivogen. The cells frozen in liquid nitrogen were taken, quickly placed in a water bath at 37° C., shaken occasionally, and completely melted within 1 min. The cells were transferred to 15 mL of pre-heated basal medium and resuspended; centrifuged at 1,000 r/min for 5 min, supernatant discarded; resuspended with 1 mL of basal medium, transferred to a T25 culture flask, supplemented to 5 mL with the medium, and incubated in an incubator at 37° C.; after stable passage twice, and subjected to selective antibiotic screening: HEK-Blue™ hTLR7 or HEK-Blue™ hTLR8: 100 μg/mL Zeocin+Blasticidin (30 μg/mL), HEK-Blue Nu112-k: 100 μg/mL Zeocin. The fluid was changed 3 times a week. When the number of cells reached 70%-80%, PBS was added, and the cells were exfoliated by gently pipetting.
(§3) Activity assay steps: (1) adding a test sample to a 96-well plate at 20 μL/well (triplicate wells were set); (2) adding 20 μL of positive control (e.g., R848), and adding 20 μL of negative control (e.g., ddH2O); (3) removing a T75 culture flask from the incubator, discarding the medium, adding 5-10 mL of pre-heated PBS, and gently pipetting the cells; adding 2-5 mL of PBS to the culture flask, incubating the culture flask in the incubator for 1-2 min, and then gently pipetting the cells to make them exfoliated; (4) mixing the mixture well, and counting the cells, without centrifugation; resuspending the cells with HEK-Blue™ assay solution and adjusting the cell number, taking care not to incubate for a long time to avoid too deep background or false positive. HEK-Blue hTLR cell number was about 2.2×10^5/mL, 180 μL/well (about 40000 cells), and HEK-Blue Nu112-k cell number was about 2.8×10^5/mL, 180 μL/well (about 50000 cells). (5) incubating the cells in the incubator at 37° C. for 6-16 h, and detecting at 620-655 nm for SEAP readings.
(§4) Effect %=(mean OD of the administration group−mean OD of the H2O group at each concentration)/(mean ODmax of the positive drug group−mean OD of the H2O group)×100. EC50 was calculated by fitting Lg [concentration]-effect curves using GraphPad Prism5 software.
(§5) Experimental results: the concentration for 50% of maximal effect (EC50) refers to a corresponding concentration of small molecules that can cause 50% of the maximal agonistic effect. […] EC50 represents a potency for agonizing the TLR8 receptor, with smaller values indicating better efficacy. […] In the following table, the unit of the agonist activity is nanomole, unless otherwise specified.

For the next test, the target named is T2, hTLR7 (Homo sapiens, UniProt Q9NYK1).
T2 construct: host or cells: HEK-Blue hTLR7 (HEK293-derived reporter cells with SEAP read-out)
T2 sequence (Q9NYK1 27-1049): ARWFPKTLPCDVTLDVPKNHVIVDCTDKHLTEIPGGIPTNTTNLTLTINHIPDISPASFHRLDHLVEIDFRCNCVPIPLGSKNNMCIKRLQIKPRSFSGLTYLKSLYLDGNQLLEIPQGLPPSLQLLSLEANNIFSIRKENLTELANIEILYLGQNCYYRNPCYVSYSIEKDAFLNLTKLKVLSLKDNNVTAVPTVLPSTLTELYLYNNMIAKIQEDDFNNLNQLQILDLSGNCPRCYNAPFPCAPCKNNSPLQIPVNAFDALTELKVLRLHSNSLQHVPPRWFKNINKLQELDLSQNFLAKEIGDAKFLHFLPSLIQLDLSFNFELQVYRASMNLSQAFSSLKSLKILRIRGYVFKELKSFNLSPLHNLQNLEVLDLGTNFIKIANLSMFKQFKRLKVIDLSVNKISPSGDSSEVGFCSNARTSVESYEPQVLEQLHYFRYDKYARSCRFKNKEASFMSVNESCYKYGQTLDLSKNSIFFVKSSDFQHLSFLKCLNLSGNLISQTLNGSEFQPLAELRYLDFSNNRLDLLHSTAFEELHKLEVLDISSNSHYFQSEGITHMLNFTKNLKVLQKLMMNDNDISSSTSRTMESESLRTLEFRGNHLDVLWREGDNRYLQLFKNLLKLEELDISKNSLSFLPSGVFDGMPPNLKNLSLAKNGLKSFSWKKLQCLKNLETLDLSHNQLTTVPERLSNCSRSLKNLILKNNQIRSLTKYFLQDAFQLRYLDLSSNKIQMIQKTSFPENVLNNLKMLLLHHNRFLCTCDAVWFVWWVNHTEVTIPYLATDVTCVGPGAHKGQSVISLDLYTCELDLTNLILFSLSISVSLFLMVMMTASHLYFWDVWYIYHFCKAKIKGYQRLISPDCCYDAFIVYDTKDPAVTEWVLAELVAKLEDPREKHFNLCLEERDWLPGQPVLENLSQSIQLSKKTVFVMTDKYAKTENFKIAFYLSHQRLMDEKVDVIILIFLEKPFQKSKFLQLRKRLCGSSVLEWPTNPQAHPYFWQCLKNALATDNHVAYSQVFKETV
Put plainly: EC50 assay for small molecule agonists, HEK-Blue hTLR7 cells, SEAP readout. The test is classed as cell-based. The conditions noted are these: agonist activity. As to the method:
as §1, §2, §3, §4, §5

With `CCCN(CCC)C(=O)C1=Cc2ccc(-c3ccc(C(=O)N4CCCC4)cc3)cc2N=C(N)C1` [VTX2337, reference compound], the EC50 on hTLR8 was 102 nM; on hTLR7 it was over 3000 nM.
